The test has as its target Short transient receptor potential channel 6 (Mus musculus) (UniProt Q61143). Description: TRPC6 inhibitor potency, dose response, cell-based, mouse TRPC6, HEK293, membrane potential (AID 2696). The settings on record: TRPC6-expressing HEK293 cells, membrane potential dye fluorescence, acetylcholine-stimulated.

Chain of Short transient receptor potential channel 6 (Mus musculus) (Q61143 whole entry, looked up): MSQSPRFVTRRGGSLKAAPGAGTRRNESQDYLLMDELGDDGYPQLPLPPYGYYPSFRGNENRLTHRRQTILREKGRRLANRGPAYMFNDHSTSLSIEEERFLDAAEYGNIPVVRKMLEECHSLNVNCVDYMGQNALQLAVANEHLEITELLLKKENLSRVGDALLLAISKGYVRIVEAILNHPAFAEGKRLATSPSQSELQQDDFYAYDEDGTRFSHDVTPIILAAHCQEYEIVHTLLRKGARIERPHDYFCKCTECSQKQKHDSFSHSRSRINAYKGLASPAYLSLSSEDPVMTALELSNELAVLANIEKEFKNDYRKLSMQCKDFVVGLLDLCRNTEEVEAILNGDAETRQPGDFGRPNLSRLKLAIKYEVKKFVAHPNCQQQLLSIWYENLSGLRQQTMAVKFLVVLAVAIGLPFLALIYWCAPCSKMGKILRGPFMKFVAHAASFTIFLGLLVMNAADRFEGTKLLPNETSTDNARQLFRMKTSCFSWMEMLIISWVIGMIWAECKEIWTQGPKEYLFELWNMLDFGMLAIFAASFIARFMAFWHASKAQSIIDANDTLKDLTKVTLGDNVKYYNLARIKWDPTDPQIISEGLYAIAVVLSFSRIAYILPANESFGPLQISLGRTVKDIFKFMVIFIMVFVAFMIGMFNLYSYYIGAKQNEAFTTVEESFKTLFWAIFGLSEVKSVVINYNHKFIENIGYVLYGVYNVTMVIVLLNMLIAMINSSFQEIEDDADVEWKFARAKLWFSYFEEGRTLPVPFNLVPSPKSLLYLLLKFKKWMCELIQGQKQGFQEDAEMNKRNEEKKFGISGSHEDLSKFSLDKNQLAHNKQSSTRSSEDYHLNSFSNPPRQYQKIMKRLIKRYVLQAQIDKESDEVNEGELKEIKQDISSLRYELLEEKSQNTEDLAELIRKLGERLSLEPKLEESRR

`Cn1c2c(c(=O)n(C)c1=O)C(C(F)(F)F)(C(F)(F)F)N=C(c1ccc(Cl)cc1)N2`: the IC50 was 7.94 µM.
Then `CCN(CC)CCC#CC(O)(c1ccccc1)C1CCCCC1` (stereo not drawn), with 11.2 µM; and `Cc1ccc(C2N(c3ccccc3)C(=S)N3CCCN23)cc1` (stereo not drawn), with 25.1 µM.
For `Cn1c(=O)c2c(nc(SCCN3CCCCC3)n2Cc2ccccc2)n(C)c1=O` the value was 70.8 µM; for `COC(=O)c1ccc(NC(=O)c2snnc2-c2ccccc2)cc1`, 39.8 µM.
Then `COc1ccc(N2CCN(S(=O)(=O)CCNC(=O)COc3ccccc3C)CC2)cc1`, with 39.8 µM; and `COc1ccccc1C(=O)NCC1CCN(c2ccc(S(=O)(=O)N3CCOCC3)cc2)CC1`, with 19.9 µM.
Take `CCOC(=O)c1c(CNc2ccncc2)n(C)c2cc(Br)c(O)cc12`: the IC50 is 44.7 µM.
For `CCN(CC)CCCOC(=O)C1(c2ccccc2)CCCC1`, the IC50 was 11.2 µM.
For `COc1ccc(-c2cc(=Nc3ccc(C)cc3)c3ccccc3o2)cc1` the value was 44.7 µM.
For `Cc1ccc(C)c(Nc2nc(N)c3ccccc3n2)c1` the value was 19.9 µM.
Then `c1ccc2c(c1)CCc1ccccc1C2=C1CCNCC1`, with 28.2 µM; and `OC(CCN1CCCCC1)(c1ccccc1)c1ccccc1`, with 2.82 µM.
On to `Cc1ccc(Sc2c([N+](=O)[O-])c(C)nn2C)cc1`, for which the IC50 was 35.5 µM.
For `COC(=O)c1[nH]c2ccc(Br)cc2c1NC(=O)CN1CCN(C2CCCCC2)CC1` the value was 44.7 µM; for `C[n+]1ccccc1/C=C/c1ccc(F)c(F)c1`, 44.7 µM; for `CCN(CC)CC(=O)Nc1cc(N(C)C)nc2ccccc12`, 70.8 µM.
In the case of `COCCNC(=O)c1cc2c(=O)n3cccc(C)c3nc2n(Cc2ccncc2)c1=N`, the IC50 was 39.8 µM.
For `CC(C)[N+](C)(C)CC#CC(O)(c1ccccc1)c1ccccc1` the value was 2 µM; for `CN(C)C(C)(C)/C=C/C(O)(c1ccccc1)c1ccccc1`, 17.8 µM.
Take `Cc1ccc(-c2nc(C(=O)NCCCN3CCOCC3)cc3c2[nH]c2ccccc23)cc1`: the 50% inhibitory concentration (IC50) is 50.1 µM.
Then `N=c1sccn1CC(=O)Nc1cc(Cl)ccc1Oc1ccccc1`, with 44.7 µM.
Then `Nc1c2c(nc3ccccc13)N(C1CCCCC1)CC2`, with 70.8 µM.
Consider `O=C1c2ccccc2-c2onc3c(N4CCN(CCO)CC4)cc(N4CCN(C(=O)c5ccco5)CC4)c1c23`, for which the IC50 is 79.4 µM.
Turning to `CCCC[n+]1ccc(-c2nc3ccc([N+](=O)[O-])cc3[nH]2)cc1`, the IC50 is 56.2 µM.
For the compound `CCCc1cc(=S)n2c([nH]c3ccccc32)c1C#N`, the IC50 was 50.1 µM.
Then `Cc1cc(C)c2nc(C)cc(Nc3ccc(C(=O)NCCO)cc3)c2c1`, with 44.7 µM.
For `Cc1cccc2sc(N(CCCN(C)C)C(=O)c3ccco3)nc12` the value was 70.8 µM; for `CN(C)CCOC(=O)C(c1ccccc1)C1(O)CCCC1` (stereo not drawn), 1.78 µM; for `CC1=NN(c2ccccc2)C(=O)/C1=C/C=C/c1ccc(N(C)C)cc1`, 44.7 µM.
Then `Cc1ccc(C(OCC(C)(C)C[N+](C)(C)C)c2ccccc2)cc1` (stereo not drawn), with 44.7 µM; and `O=C(NC(Nc1ncc(S(=O)(=O)c2ccc([N+](=O)[O-])cc2)s1)(C(F)(F)F)C(F)(F)F)c1ccc(Cl)cc1`, with 44.7 µM.
As to `Cc1ccc(Oc2ccc(NC(=O)Cn3ccsc3=N)cc2)cc1`, the IC50 was 70.8 µM.
For the compound `CC(C)(C)NCc1cc(Br)ccc1OC1CCCC1`, the IC50 is 44.7 µM.
Regarding `CN1CCCN=C1COC(=O)C(O)(c1ccccc1)C1CCCCC1` (stereo not drawn), the half-maximal inhibitory concentration (IC50) is 0.05 µM.
Take `CCN(c1ccccc1)S(=O)(=O)c1cccc(C(=O)N2CCN(S(=O)(=O)c3ccccc3)CC2)c1`: the IC50 was 63.1 µM.
Turning to `CCOC(=O)N1CCC(N2CCN(CCC(C)C)C(CCO)C2)CC1` (stereo not drawn), the concentration for half-maximal inhibition (IC50) is 14.1 µM.
Then `Clc1ccc(C(c2ccccc2)N2CCNCC2)cc1` (stereo not drawn), with 50.1 µM; and `CC1CCN(Cc2ccc(NC(=O)CC3Oc4ccccc4NC3=O)cc2)CC1` (stereo not drawn), with 2.24 µM; and `CCN(CC)CCCNc1nc2ccccc2c2nc(-c3ccncc3)nn12`, with 44.7 µM.
For `CC(Cc1ccccc1Sc1ccccc1O)N(C)C` (stereo not drawn) the value was 39.8 µM.
Then `CCCc1cc(-c2[nH]ncc2-c2ccc3c(c2)OCCCO3)c(O)cc1O`, with 50.1 µM.
Regarding `S=c1[nH]nc(Cc2ccccc2)n1Cc1ccco1`, the IC50 was 39.8 µM.
For `OC(C#CCCN1CCCCC1)(c1ccccc1)c1ccccc1` the value was 39.8 µM.
Turning to `CCn1c2c(c(=N)c3ccccc31)CCC2`, the IC50 is 50.1 µM.
In the case of `O=C(NNS(=O)(=O)c1ccc2ccccc2c1)C1CCN(Cc2ccccc2)CC1`, the IC50 was 1.41 µM.
Then `COc1ccc(Cl)cc1Nc1nc(N)c2ccccc2n1`, with 31.6 µM.
Take `CCN(CC)CCn1c(=N)n(CCOc2ccccc2)c2ccccc21`: the half-maximal inhibitory concentration (IC50) was 35.5 µM.
For `S=C1N(c2ccccc2)C(c2ccc(Cl)cc2)N2CCCN12` (stereo not drawn) the value was 17.8 µM; for `N#CCCN(CCN1CCCC1)S(=O)(=O)c1ccc(-c2ccc([N+](=O)[O-])cc2)cc1`, 63.1 µM; for `COc1ccccc1-n1c(-c2ccccc2)c[n+]2c1CCc1ccccc1-2`, 19.9 µM.
As to `C[N+]1(C)C2CCC1CC(OC(=O)C(CO)c1ccccc1)C2` (stereo not drawn), the IC50 was 0.07 µM.
For `CCCCCC[N+](C)(C)CC/C=C1/c2ccccc2Sc2ccc(Cl)cc21` the value was 12.6 µM; for `Cc1cc(C)n(-c2nc(NCCCN(C)C)c3c4c(sc3n2)CCCC4)n1`, 44.7 µM; for `O=C(c1ccc(C(F)(F)F)cc1)C1CCCN(C2CCSCC2)C1` (stereo not drawn), 39.8 µM.
Then `O=c1cc(C(F)(F)F)[nH]c2c(C(F)(F)F)cccc12`, with 25.1 µM.
For `C[N+](C)(C)CCOC(=O)C1(c2ccccc2)CCCC1` the value was 8.91 µM; for `CCSc1ccc2cc(OC)ccc2[n+]1CC`, 50.1 µM; for `Cc1ccc(SC(=O)c2c([N+](=O)[O-])c(C)nn2C)cc1`, 35.5 µM.
Take `CCN1CCN(c2nc3ccccc3nc2C(C#N)C(=O)OCc2ccccc2)CC1` (stereo not drawn): the IC50 is 70.8 µM.
Then `CN1CCN(c2ncccc2S(=O)(=O)N2CCCCC2)CC1`, with 11.2 µM; and `Cc1c(C(=O)OC(C)CCN(C)C)oc2ccccc12` (stereo not drawn), with 14.1 µM.
For `CCN(CC)CCSc1nnc2c3ccccc3n(Cc3ccccc3)c2n1` the value was 44.7 µM.
Turning to `c1ccc(Cn2c(-c3ccccc3)c[n+]3c2SCCC3)cc1`, the IC50 is 3.98 µM.
For `Cc1cccc(-c2nc(NCCCN3CCOCC3)c3ccccc3n2)c1` the value was 70.8 µM.
Take `CCCn1c(=N)c(C(=O)NC2CCCC2)cc2c(=O)n3cccc(C)c3nc21`: the IC50 is 44.7 µM.
Then `COc1ccccc1Nc1nc(N)nc(CSC(=S)N2CCCCC2C)n1` (stereo not drawn), with 44.7 µM; and `CCOC(=O)c1[nH]c2ccc(F)cc2c1NC(=O)CN1CCN(C/C=C/c2ccccc2)CC1`, with 31.6 µM.
For `C[C@H]1OC[C@@H](C[N+](C)(C)C)O1` the value was 4.47 µM.
Take `CC1(C)CC(N=c2cc(-c3ccccc3)oc3ccc(Cl)cc23)CC(C)(C)N1`: the IC50 was 50.1 µM.
`CCN(CC)CC(=O)N1c2ccccc2Sc2ccc(Cl)cc21`: the IC50 was 44.7 µM.
For `CCCc1ncc(C(O)(c2ccccc2)c2ccccc2)n1C` the value was 39.8 µM.
For `Nc1cccc2nc3ccccc3cc12` the value was 50.1 µM; for `CN1CCCC(C#CC(O)(c2ccccc2)c2ccccc2)C1` (stereo not drawn), 15.8 µM.
Take `Cc1ccc(-c2cc(-c3ccc(C)cc3)[n+](-c3ccccc3)c(-c3ccc(C)cc3)c2)cc1`: the half-inhibitory concentration (IC50) is 50.1 µM.
Then `Cc1cc(C)nc(/N=C(\N)N(Cc2ccccc2)Cc2ccccc2)n1`, with 28.2 µM.
`Cc1ccc(CNc2ccc3c(c2)ncn3C(C)(C)C)cc1`: the IC50 is 44.7 µM.
As for `Nc1c2ccccc2nc2ccccc12`, the IC50 is 70.8 µM.
`COc1ccccc1N1CCN(Cc2ccc(O)c3ncccc23)CC1`: the half-inhibitory concentration (IC50) was 39.8 µM.
Then `Cc1nnsc1C(=O)N/N=C/c1ccc2ccccc2c1O`, with 8.91 µM; and `O=C(NCC(=O)N(c1ccc2c(c1)OCCO2)C(C(=O)NC1CCCC1)c1ccco1)c1ccco1` (stereo not drawn), with 44.7 µM; and `CN1CCC(OC(=O)C2c3ccccc3Oc3ccccc32)CC1`, with 0.71 µM.
Then `COc1cccc(Nc2nc(NCCO)c3ccccc3n2)c1`, with 63.1 µM.
For `CN(c1ccccc1)P(=O)(N(C)c1ccccc1)N(C)c1ccccc1` the value was 44.7 µM; for `Cc1ccc(C[n+]2c(-c3ccc(C)cc3)cc(-c3ccc(C)cc3)cc2-c2ccc(C)cc2)cc1`, 79.4 µM.
As to `CN1C2CCC1CC(OC(c1ccccc1)c1ccccc1)C2` (stereo not drawn), the IC50 is 0.32 µM.
Then `Cc1ccc(C)c(NC(=O)C(NCC(C)(C)N2CCOCC2)c2ccccc2)c1` (stereo not drawn), with 25.1 µM; and `OC(CCN1CCCC1)(c1ccccc1)C1CCCCC1` (stereo not drawn), with 4.47 µM.
As to `Cc1ccc(OCCCCCCN2CCNCC2)c(Br)c1`, the IC50 is 79.4 µM.
Turning to `OC(C#CCN1CCCC1)(c1ccccc1)c1ccccc1`, the half-maximal inhibitory concentration (IC50) is 3.98 µM.
Take `CC[n+]1c(/C=C/Nc2ccccc2)sc2ccccc21`: the IC50 is 79.4 µM.
For `CN1CCCC1CCNc1ccc2c(=O)c3ccccc3oc2c1` (stereo not drawn) the value was 63.1 µM.
For `O=C(OCCN1CCCCC1)C1(c2ccccc2)CCCC1` the value was 8.91 µM.
For the compound `CN(C)CCCOC(=O)C1c2ccccc2Oc2ccccc21`, the IC50 is 6.31 µM.
Turning to `CCOC(=O)N1CCN(Cc2nc(-c3ccc(Cl)cc3)no2)CC1`, the IC50 was 79.4 µM.
Take `CC(C)[N+](C)(CCOC(=O)C1c2ccccc2Oc2ccccc21)C(C)C`: the IC50 was 0.07 µM.
Then `Cc1c(Cl)cccc1Nc1nc(NCCO)c2ccccc2n1`, with 79.4 µM; and `CN(C)CCOc1nc(-c2ccccc2)nc2c1oc1ccccc12`, with 70.8 µM; and `CN(CC#CC(O)(c1ccccc1)c1ccccc1)C(C)(C)C`, with 12.6 µM.
Then `O=S(=O)(Nc1nc2ccccc2[nH]1)c1ccc(Cl)cc1`, with 7.08 µM.
For `COc1ccc2ccccc2c1CNCc1ccc(C)cc1` the value was 44.7 µM; for `Cc1ccccc1OCC(=O)NCCS(=O)(=O)N1CCN(c2ccc(F)cc2)CC1`, 44.7 µM; for `S=C1N(c2ccccc2)C(c2ccc(Br)cc2)N2CCCN12` (stereo not drawn), 17.8 µM.

For the origin of these results see PubChem BioAssay AID2696 (Johns Hopkins Ion Channel Center, 2010).
